In US20260224716A1, “PTH ANALOGS FOR THE TREATMENT OF HYPOPARATHYROIDISM” (priority 2020, published 2026):

Assay: Cleavage half-life / conversion of PTH prodrugs in PBS pH 7.4, 37° C. by LC-MS
Assay type: physicochemical
Conditions: for half-life: PBS buffer, dipeptide cleavage from PTH prodrug, PBS pH 7.4, 37° C., read-out: Half life (converted)
Description: The resulting solution was incubated at 37° C. Aliquots were taken at designed time points and analyzed by LC-MS. […] Flow rate of 1 mL/min and a gradient of 10%-80% acetonitrile in water, with 0.1% trifluoroacetic acid over 10 min. […] The concentration of prodrug and drug were determined by their relative peak areas. The […] dissociation rate constant of the prodrug was determined by plotting the logarithm in the concentration of the prodrug at various time points.

SMILES | half-life | Half life, fold slower than dK (vs SEQ ID NO: 46) (comparator SEQ ID NO: 46) | Half life, fold faster than Sar (vs SEQ ID NO: 52) (comparator SEQ ID NO: 52) | Half life, fold slower than dK (vs SEQ ID NO: 45) (comparator SEQ ID NO: 45) | Half life, fold slower than Sar (vs SEQ ID NO: 52) (comparator SEQ ID NO: 52) | Half life, fold faster (vs SEQ ID NO: 45) (comparator SEQ ID NO: 45)
CC[C@H](C)[C@H](NC(=O)[C@H](CCC(=O)O)NC(=O)[C@H](CO)NC(=O)[C@@H](NC(=O)[C@H](CO)NC(=O)CN(C(=O)[C@@H](N)CCCCNC(=O)CC[C@H](NC(=O)CCCCCCCCCCCCCCCCC(=O)O)C(=O)O)C(C)C)C(C)C)C(=O)N[C@@H](CCC(N)=O)C(=O)N[C@@H](CC(C)C)C(=O)N[C@@H](CCSC)C(=O)N[C@@H](Cc1c[nH]cn1)C(=O)N[C@@H](CC(N)=O)C(=O)N[C@@H](CC(C)C)C(=O)NCC(=O)N[C@@H](CCCCN)C(=O)N[C@@H](Cc1c[nH]cn1)C(=O)N[C@@H](CC(C)C)C(=O)N[C@@H](CC(N)=O)C(=O)N[C@@H](CO)C(=O)N[C@@H](CCSC)C(=O)N[C@@H](CCC(=O)O)C(=O)N[C@@H](CCCNC(=N)N)C(=O)N[C@H](C(=O)N[C@@H](CCC(=O)O)C(=O)N[C@@H](Cc1c[nH]c2ccccc12)C(=O)N[C@@H](CC(C)C)C(=O)N[C@@H](CCCNC(=N)N)C(=O)N[C@@H](CCCCN)C(=O)N[C@@H](CCCCN)C(=O)N[C@@H](CC(C)C)C(=O)N[C@@H](CCC(N)=O)C(=O)N[C@@H](CC(=O)O)C(=O)N[C@H](C(=O)N[C@@H](Cc1c[nH]cn1)C(=O)N[C@@H](CC(N)=O)C(=O)N[C@@H](Cc1ccccc1)C(=O)O)C(C)C)C(C)C [SEQ ID NO: 48] | 67 h | 1.4 slower than dK | 1.9 faster than Sar | – | – | –
CC[C@H](C)[C@H](NC(=O)[C@H](CCC(=O)O)NC(=O)[C@H](CO)NC(=O)[C@@H](NC(=O)[C@H](CO)NC(=O)CN(C)C(=O)[C@H](N)CCCCN)C(C)C)C(=O)N[C@@H](CCC(N)=O)C(=O)N[C@@H](CC(C)C)C(=O)N[C@@H](CCSC)C(=O)N[C@@H](Cc1c[nH]cn1)C(=O)N[C@@H](CC(N)=O)C(=O)N[C@@H](CC(C)C)C(=O)NCC(=O)N[C@@H](CCCCN)C(=O)N[C@@H](Cc1c[nH]cn1)C(=O)N[C@@H](CC(C)C)C(=O)N[C@@H](CC(N)=O)C(=O)N[C@@H](CO)C(=O)N[C@@H](CCSC)C(=O)N[C@@H](CCC(=O)O)C(=O)N[C@@H](CCCNC(=N)N)C(=O)N[C@H](C(=O)N[C@@H](CCC(=O)O)C(=O)N[C@@H](Cc1c[nH]c2ccccc12)C(=O)N[C@@H](CC(C)C)C(=O)N[C@@H](CCCNC(=N)N)C(=O)N[C@@H](CCCCN)C(=O)N[C@@H](CCCCN)C(=O)N[C@@H](CC(C)C)C(=O)N[C@@H](CCC(N)=O)C(=O)N[C@@H](CC(=O)O)C(=O)N[C@H](C(=O)N[C@@H](Cc1c[nH]cn1)C(=O)N[C@@H](CC(N)=O)C(=O)N[C@@H](Cc1ccccc1)C(=O)N[C@@H](CCCCNC(=O)CC[C@H](NC(=O)CCCCCCCCCCCCCCCCC(=O)O)C(=O)O)C(N)=O)C(C)C)C(C)C [SEQ ID NO: 57] | 49 h | – | – | – | – | 1.8 faster without

Results, then the molecule that gave them:

half-life | Half life, fold slower than dK (vs SEQ ID NO: 46) (comparator SEQ ID NO: 46) | Half life, fold faster than Sar (vs SEQ ID NO: 52) (comparator SEQ ID NO: 52) | Half life, fold slower than dK (vs SEQ ID NO: 45) (comparator SEQ ID NO: 45) | Half life, fold slower than Sar (vs SEQ ID NO: 52) (comparator SEQ ID NO: 52) | Half life, fold faster (vs SEQ ID NO: 45) (comparator SEQ ID NO: 45) | SMILES
130 h | – | – | 1.4 slower than dK | – | – | CC[C@H](C)[C@H](NC(=O)[C@H](CCC(=O)O)NC(=O)[C@H](CO)NC(=O)[C@@H](NC(=O)[C@H](CO)NC(=O)CN(C)C(=O)[C@@H](N)CCCCNC(=O)CC[C@H](NC(=O)CCCCCCCCCCCCCCCCC(=O)O)C(=O)O)C(C)C)C(=O)N[C@@H](CCC(N)=O)C(=O)N[C@@H](CC(C)C)C(=O)N[C@@H](CCSC)C(=O)N[C@@H](Cc1c[nH]cn1)C(=O)N[C@@H](CC(N)=O)C(=O)N[C@@H](CC(C)C)C(=O)NCC(=O)N[C@@H](CCCCN)C(=O)N[C@@H](Cc1c[nH]cn1)C(=O)N[C@@H](CC(C)C)C(=O)N[C@@H](CC(N)=O)C(=O)N[C@@H](CO)C(=O)N[C@@H](CCSC)C(=O)N[C@@H](CCC(=O)O)C(=O)N[C@@H](CCCNC(=N)N)C(=O)N[C@H](C(=O)N[C@@H](CCC(=O)O)C(=O)N[C@@H](Cc1c[nH]c2ccccc12)C(=O)N[C@@H](CC(C)C)C(=O)N[C@@H](CCCNC(=N)N)C(=O)N[C@@H](CCCCN)C(=O)N[C@@H](CCCCN)C(=O)N[C@@H](CC(C)C)C(=O)N[C@@H](CCC(N)=O)C(=O)N[C@@H](CC(=O)O)C(=O)N[C@H](C(=O)N[C@@H](Cc1c[nH]cn1)C(=O)N[C@@H](CC(N)=O)C(=O)N[C@@H](Cc1ccccc1)C(=O)O)C(C)C)C(C)C [SEQ ID NO: 52]
71 h | – | 1.8 faster than Sar | – | – | – | CC[C@H](C)[C@H](NC(=O)[C@H](CCC(=O)O)NC(=O)[C@H](CO)NC(=O)[C@@H](NC(=O)[C@H](CO)NC(=O)[C@H](C)N(C)C(=O)[C@@H](N)CCCCNC(=O)CC[C@H](NC(=O)CCCCCCCCCCCCCCCCC(=O)O)C(=O)O)C(C)C)C(=O)N[C@@H](CCC(N)=O)C(=O)N[C@@H](CC(C)C)C(=O)N[C@@H](CCSC)C(=O)N[C@@H](Cc1c[nH]cn1)C(=O)N[C@@H](CC(N)=O)C(=O)N[C@@H](CC(C)C)C(=O)NCC(=O)N[C@@H](CCCCN)C(=O)N[C@@H](Cc1c[nH]cn1)C(=O)N[C@@H](CC(C)C)C(=O)N[C@@H](CC(N)=O)C(=O)N[C@@H](CO)C(=O)N[C@@H](CCSC)C(=O)N[C@@H](CCC(=O)O)C(=O)N[C@@H](CCCNC(=N)N)C(=O)N[C@H](C(=O)N[C@@H](CCC(=O)O)C(=O)N[C@@H](Cc1c[nH]c2ccccc12)C(=O)N[C@@H](CC(C)C)C(=O)N[C@@H](CCCNC(=N)N)C(=O)N[C@@H](CCCCN)C(=O)N[C@@H](CCCCN)C(=O)N[C@@H](CC(C)C)C(=O)N[C@@H](CCC(N)=O)C(=O)N[C@@H](CC(=O)O)C(=O)N[C@H](C(=O)N[C@@H](Cc1c[nH]cn1)C(=O)N[C@@H](CC(N)=O)C(=O)N[C@@H](Cc1ccccc1)C(=O)O)C(C)C)C(C)C [SEQ ID NO: 53]
250 h | – | – | – | 1.9 slower than Sar | – | CC[C@H](C)[C@H](NC(=O)[C@H](CCC(=O)O)NC(=O)[C@H](CO)NC(=O)[C@@H](NC(=O)[C@H](CO)NC(=O)[C@@H]1CCCCN1C(=O)[C@@H](N)CCCCNC(=O)CC[C@H](NC(=O)CCCCCCCCCCCCCCCCC(=O)O)C(=O)O)C(C)C)C(=O)N[C@@H](CCC(N)=O)C(=O)N[C@@H](CC(C)C)C(=O)N[C@@H](CCSC)C(=O)N[C@@H](Cc1c[nH]cn1)C(=O)N[C@@H](CC(N)=O)C(=O)N[C@@H](CC(C)C)C(=O)NCC(=O)N[C@@H](CCCCN)C(=O)N[C@@H](Cc1c[nH]cn1)C(=O)N[C@@H](CC(C)C)C(=O)N[C@@H](CC(N)=O)C(=O)N[C@@H](CO)C(=O)N[C@@H](CCSC)C(=O)N[C@@H](CCC(=O)O)C(=O)N[C@@H](CCCNC(=N)N)C(=O)N[C@H](C(=O)N[C@@H](CCC(=O)O)C(=O)N[C@@H](Cc1c[nH]c2ccccc12)C(=O)N[C@@H](CC(C)C)C(=O)N[C@@H](CCCNC(=N)N)C(=O)N[C@@H](CCCCN)C(=O)N[C@@H](CCCCN)C(=O)N[C@@H](CC(C)C)C(=O)N[C@@H](CCC(N)=O)C(=O)N[C@@H](CC(=O)O)C(=O)N[C@H](C(=O)N[C@@H](Cc1c[nH]cn1)C(=O)N[C@@H](CC(N)=O)C(=O)N[C@@H](Cc1ccccc1)C(=O)O)C(C)C)C(C)C [SEQ ID NO: 54]
